Reference: patent publication US5473039A, “Polypeptide analogs of apolipoprotein E, diagnostic systems and methods using the analogs” (The Scripps Research Institute, priority 1991, dated 1995)

What was measured:
LDL receptor [1] = target: T1, LDL receptor (Homo sapiens, UniProt P01130); assay: 125I-LDL degradation by unstimulated THP-1 cells; format: cell-based; design: In the undifferentiated state THP-1 cells express LDL receptors that are regulated by the lipoprotein content of the culture medium; host or cells: THP-1 cells (unstimulated)
T1 sequence (P01130 22-860): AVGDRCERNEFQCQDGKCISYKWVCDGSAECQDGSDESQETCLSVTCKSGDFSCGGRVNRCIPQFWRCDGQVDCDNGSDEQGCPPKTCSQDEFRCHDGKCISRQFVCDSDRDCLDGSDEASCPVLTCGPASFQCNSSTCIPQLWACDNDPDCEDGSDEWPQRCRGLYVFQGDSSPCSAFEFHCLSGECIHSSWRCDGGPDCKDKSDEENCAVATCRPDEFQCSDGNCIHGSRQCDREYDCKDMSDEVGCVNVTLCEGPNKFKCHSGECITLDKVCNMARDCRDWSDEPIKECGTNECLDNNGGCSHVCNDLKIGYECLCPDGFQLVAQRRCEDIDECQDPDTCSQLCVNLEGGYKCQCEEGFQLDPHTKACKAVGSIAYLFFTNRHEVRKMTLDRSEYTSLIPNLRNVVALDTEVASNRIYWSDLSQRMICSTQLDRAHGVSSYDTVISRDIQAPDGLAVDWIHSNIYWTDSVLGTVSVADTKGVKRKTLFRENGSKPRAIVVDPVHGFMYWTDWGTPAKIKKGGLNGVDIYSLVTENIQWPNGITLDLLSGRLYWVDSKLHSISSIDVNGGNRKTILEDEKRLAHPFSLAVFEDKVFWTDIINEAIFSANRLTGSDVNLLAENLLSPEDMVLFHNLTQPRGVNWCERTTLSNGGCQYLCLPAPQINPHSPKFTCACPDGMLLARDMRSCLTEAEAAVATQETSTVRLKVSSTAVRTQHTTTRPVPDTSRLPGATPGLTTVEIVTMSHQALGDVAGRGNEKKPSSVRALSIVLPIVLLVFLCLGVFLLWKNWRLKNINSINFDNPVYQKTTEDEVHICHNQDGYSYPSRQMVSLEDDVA
Description: THP-1 cells were acquired from American Type Culture Collection and cultured in serum-free RPMI-1640 medium supplemented with 1% Nutridoma-HU for 48 hr to upregulate the LDL receptors. LDL was isolated by ultracentrifugation and radiolabeled using the iodine monochloride method as described in Example 8 to a specific activity 200-300 cpm/ng. Greater than 99% of the ^125 I-LDL ligand was precipitable by 10% TCA. The peptides indicated in FIGS. 1A and 1B were synthesized, as described in Example 1, purified to >95% by high pressure liquid chromatography and the amino acid composition verified. All peptides were solubilized in PBS. "AI 74-105"is a control peptide derived from residues 74-105 of apolipoprotein AI, "Monomer" is p(141-155), "Tandem Peptide" is p(141-155)2, "LDL" is unlabelled LDL, and "aLDL" is acetylated LDL.
Binding and degradation of LDL was evaluated as the disappearance of acid soluble ^125 I-LDL radioactivity from the incubation over a 5-hour incubation at 37C. Various concentrations of unlabeled LDL or tandem apo E peptide were coincubated with the ^125 I-LDL to determine their effects on binding and degradation.
For assay, 5×10^5 THP-1 cells in 0.5ml DMEM were co-incubated in a 1.5ml microfuge tube with 2-5 μg/ml of ^125 I-LDL at 37° C. in the presence of various concentrations of competitors indicated in FIGS. 1A and 1B. After 5 hr the cells were pelleted at 5000 x g, the supernatants were removed and the supernatants were extracted with 10% TCA and counted to form a TCA soluble cpm. The results were expressed as B/Bo where B equals the total TCA soluble cpm in supernatant collected in the presence of LDL or peptide and Bo equals the total TCA soluble cpm in supernatant of phosphate buffered saline (PBS) treated control cells. Each point is the average of 4 replicates with standard error of the mean (SEM),10%.

LDL receptor [2] = target: T1, LDL receptor; assay: fibroblast 125I-LDL degradation; format: cell-based; design: transferred to DMEM medium with 10% lipoprotein-depleted serum (LPDS) for 48 hr to upregulate the LDL receptors; endogenous in cells; host or cells: normal fibroblasts; details: low concentrations of the tandem peptide
Protocol: A trimer of the p141-155 peptide, p(141-155)3, was synthesized as in Example 1 and its activity compared with p(141-155) (monomeric) and with p(141-155)2 (dimeric) peptide. Normal fibroblasts were plated in wells of a 96-well culture plate and grown for 96 hr in DMEM medium with 10% FBS. The cells were transferred to DMEM medium with 10% LPDS for 48 hr to up regulate the LDL receptors. The LDL degradation assay was performed according to Example 9 with 2 μg/ml of ^125 I-LDL (300-500 cpm/ng) in 0.2 ml/well in DMEM medium with 10% LPDS and incubated for 5 hr at 37° C. The supernatants removed from the wells were extracted with 10% TCA. The TCA soluble counts were normalized to protein content per well as measured by the Bio-Rad protein assay.

Compound: CC(C)C[C@H](NC(=O)[C@H](CC(=O)O)NC(=O)[C@H](CC(=O)O)NC(=O)[C@H](C)NC(=O)[C@H](CC(=O)O)NC(=O)[C@H](CCCNC(=N)N)NC(=O)[C@H](CC(C)C)NC(=O)[C@H](CC(C)C)NC(=O)[C@H](CCCNC(=N)N)NC(=O)[C@H](CCCCN)NC(=O)[C@H](CCCNC(=N)N)NC(=O)[C@H](CC(C)C)NC(=O)[C@H](CCCCN)NC(=O)[C@H](CCCNC(=N)N)NC(=O)[C@H](CC(C)C)NC(=O)[C@H](CC(C)C)NC(=O)[C@H](CC(=O)O)NC(=O)[C@H](CC(=O)O)NC(=O)[C@H](C)NC(=O)[C@H](CC(=O)O)NC(=O)[C@H](CCCNC(=N)N)NC(=O)[C@H](CC(C)C)NC(=O)[C@H](CC(C)C)NC(=O)[C@H](CCCNC(=N)N)NC(=O)[C@H](CCCCN)NC(=O)[C@H](CCCNC(=N)N)NC(=O)[C@H](CC(C)C)NC(=O)[C@H](CCCCN)NC(=O)[C@H](CCCNC(=N)N)NC(=O)[C@@H](N)CC(C)C)C(=O)O [p(141-155)2]
- molar excess compared with LDL required to achieve 50% inhibition of degradation (LDL receptor [1]): ~200 fold
- inhibition at 12.5 µM (LDL receptor [1]; THP-1, 12.5 uM): 80%
- effect on LDL degradation by THP-1 cells (LDL receptor [1]; low concentrations of the tandem peptide): significant enhancement
- IC50 (LDL receptor [1]; read-out: concentration inhibiting 125I-LDL degradation by 50%): 5 µM
- effect on LDL degradation by fibroblasts (LDL receptor [2]): significant enhancement
